Assays:
[1] = Cytotoxicity against human Huh7.5 cells infected with HCV genotype 4a assessed as morphological changes after 72 hrs by inverted light microscopy; assay type: cell-based, Huh-7
Hepatitis C virus [2] = assay: Antiviral activity against HCV genotype 4a ED-43/SG-feo (VYG) replicons infected in human Huh7.5 cells assessed as inhibition of viral replication after 72 hrs by immunofluorescence assay; assay type: functional, organism-based, Hepacivirus hominis; conditions: Huh-7, 72 h
[3] = Cytotoxicity against human Huh7.5 cells infected with HCV genotype 4a assessed as cell viability after 72 hrs by trypan blue dye-based phase contrast microscopy; conditions: Huh-7, 72 h
Hepatitis C virus [4] = assay: Antiviral activity against HCV genotype 4a ED-43/SG-feo (VYG) replicons infected in human Huh7.5 cells assessed as inhibition of viral replication at non-toxic dose after 72 hrs by immunofluorescence assay; assay type: functional, Hepacivirus hominis, Huh-7

| Structure (SMILES) | CC50 at 72 h [1] [µM] | IC50 (Hepatitis C virus [2]) [µM] | CC50 [3] [µM] | inhibition (INH) (Hepatitis C virus [4]) [%] |
| --- | --- | --- | --- | --- |
| CC(=O)Nc1c(C#N)c(-c2ccccc2)c(-c2ccccc2)n1C1CCCCC1 | 183 | > 150 | 183 |  |
| CC(=O)Nc1c(C#N)c(-c2ccccc2)c(-c2ccccc2)n1-c1cccc(Cl)c1 | 146 | > 150 | 146 |  |
| Cc1cc(C)n(-c2ncnc3c2c(-c2ccccc2)c(-c2ccccc2)n3-c2cccc(Cl)c2)n1 | 147 | > 150 | 147 |  |
| Cc1nc2c(c(-c3ccccc3)c(-c3ccccc3)n2-c2cccc(Cl)c2)c(=O)[nH]1 | 97 | > 150 | 97 |  |
| N#Cc1c(-c2ccccc2)c(-c2ccccc2)n(-c2cccc(Cl)c2)c1N | 189 | > 150 | 189 |  |
| Cc1ccccc1Nc1ncnc2c1c(-c1ccccc1)c(-c1ccccc1)n2-c1cccc(Cl)c1 | 144 | 92.4 | 144 | 76.7 |
| Clc1ccc(-n2c(-c3ccccc3)c(-c3ccccc3)c3c(Cl)ncnc32)cc1 | 120 | 108 | 120 | 73.3 |
| Clc1ccc(/C=N/Nc2ncnc3c2c(-c2ccccc2)c(-c2ccccc2)n3-c2cccc(Cl)c2)cc1 | 131 | 102 | 131 | 63.3 |
| N#Cc1c(-c2ccccc2)c(-c2ccccc2)n(-c2ccc(Cl)cc2)c1N | 189 | > 150 | 189 |  |
| Clc1cccc(-n2c(-c3ccccc3)c(-c3ccccc3)c3c(Cl)ncnc32)c1 | 168 | > 150 | 168 | 0 |
| Cc1cccc(Nc2ncnc3c2c(-c2ccccc2)c(-c2ccccc2)n3-c2ccc(Cl)cc2)c1 | 1020 | > 150 | 1020 |  |
| Cc1nc2c(c(-c3ccccc3)c(-c3ccccc3)n2-c2ccc(Cl)cc2)c(=O)[nH]1 | 97 | > 150 | 97 |  |
| Clc1cccc(-n2c(-c3ccccc3)c(-c3ccccc3)c3c(N/N=C/c4ccccc4)ncnc32)c1 | 140 | > 150 | 140 |  |
| Cc1ccc(Nc2ncnc3c2c(-c2ccccc2)c(-c2ccccc2)n3-c2ccc(Cl)cc2)cc1 | 123 | > 150 | 123 |  |
| Clc1ccc(-n2c(-c3ccccc3)c(-c3ccccc3)c3c(Nc4ccccc4)ncnc32)cc1 | 127 | > 150 | 127 |  |
| O=c1[nH]nc2c3c(-c4ccccc4)c(-c4ccccc4)n(-c4ccc(Cl)cc4)c3ncn12 | 160 | > 150 | 160 |  |
| S=c1[nH]nc2c3c(-c4ccccc4)c(-c4ccccc4)n(C4CCCCC4)c3ncn12 | 188 | > 150 | 188 |  |
| O=c1[nH]cnc2c1c(-c1ccccc1)c(-c1ccccc1)n2-c1cccc(Cl)c1 | 151 | > 150 | 151 |  |
| CC(=O)Nc1c(C#N)c(-c2ccccc2)c(-c2ccccc2)n1-c1ccc(Cl)cc1 | 146 | > 150 | 146 |  |

| Structure (SMILES) | CC50 at 72 h [1] [µM] | IC50 (Hepatitis C virus [2]) [µM] | CC50 [3] [µM] | inhibition (INH) (Hepatitis C virus [4]) [%] |
| --- | --- | --- | --- | --- |
| S=c1[nH]cnc2c1c(-c1ccccc1)c(-c1ccccc1)n2C1CCCCC1 | 130 | > 150 | 130 |  |
| NNc1ncnc2c1c(-c1ccccc1)c(-c1ccccc1)n2C1CCCCC1 | 157 | > 150 | 157 |  |
| Clc1cccc(-n2c(-c3ccccc3)c(-c3ccccc3)c3c2ncn2cnnc32)c1 | 190 | > 150 | 190 |  |
| Cc1cccc(Nc2ncnc3c2c(-c2ccccc2)c(-c2ccccc2)n3C2CCCCC2)c1 | 131 | > 150 | 131 |  |
| Cc1cc(C)n(-c2ncnc3c2c(-c2ccccc2)c(-c2ccccc2)n3C2CCCCC2)n1 | 156 | > 150 | 156 |  |
| NNc1ncnc2c1c(-c1ccccc1)c(-c1ccccc1)n2-c1ccc(Cl)cc1 | 146 | > 150 | 146 | 0 |
| COc1ccc(/C=N/Nc2ncnc3c2c(-c2ccccc2)c(-c2ccccc2)n3-c2cccc(Cl)c2)cc1 | 151 | > 150 | 151 |  |
| Clc1cccc(-n2c(-c3ccccc3)c(-c3ccccc3)c3c(Nc4ccccc4)ncnc32)c1 | 148 | > 150 | 148 |  |
| Cc1nnc2c3c(-c4ccccc4)c(-c4ccccc4)n(-c4cccc(Cl)c4)c3ncn12 | 161 | > 150 | 161 |  |
| C(=N\Nc1ncnc2c1c(-c1ccccc1)c(-c1ccccc1)n2C1CCCCC1)/c1ccccc1 | 148 | > 150 | 148 |  |
| c1ccc(Nc2ncnc3c2c(-c2ccccc2)c(-c2ccccc2)n3C2CCCCC2)cc1 | 158 | > 150 | 158 |  |
| Clc1ccc(/C=N/Nc2ncnc3c2c(-c2ccccc2)c(-c2ccccc2)n3C2CCCCC2)cc1 | 158 | > 150 | 158 |  |
| N#Cc1c(-c2ccccc2)c(-c2ccccc2)n(C2CCCCC2)c1N | 176 | > 150 | 176 |  |
| Cc1nnc2c3c(-c4ccccc4)c(-c4ccccc4)n(C4CCCCC4)c3ncn12 | 172 | > 150 | 172 |  |
| COc1ccc(/C=N/Nc2ncnc3c2c(-c2ccccc2)c(-c2ccccc2)n3-c2ccc(Cl)cc2)cc1 | 113 | > 150 | 113 |  |
| Cc1ccccc1Nc1ncnc2c1c(-c1ccccc1)c(-c1ccccc1)n2C1CCCCC1 | 153 | > 150 | 153 |  |
| Clc1ccc(-n2c(-c3ccccc3)c(-c3ccccc3)c3c2ncn2cnnc32)cc1 | 190 | > 150 | 190 |  |
| S=c1[nH]cnc2c1c(-c1ccccc1)c(-c1ccccc1)n2-c1ccc(Cl)cc1 | 121 | > 150 | 121 |  |
| Cc1cc(C)n(-c2ncnc3c2c(-c2ccccc2)c(-c2ccccc2)n3-c2ccc(Cl)cc2)n1 | 147 | > 150 | 147 |  |

| Structure (SMILES) | CC50 at 72 h [1] [µM] | IC50 (Hepatitis C virus [2]) [µM] | CC50 [3] [µM] | inhibition (INH) (Hepatitis C virus [4]) [%] |
| --- | --- | --- | --- | --- |
| O=c1[nH]nc2c3c(-c4ccccc4)c(-c4ccccc4)n(C4CCCCC4)c3ncn12 | 171 | > 150 | 171 |  |
| Cc1nc2c(c(-c3ccccc3)c(-c3ccccc3)n2C2CCCCC2)c(=O)[nH]1 | 130 | > 150 | 130 |  |
| Cc1cccc(Nc2ncnc3c2c(-c2ccccc2)c(-c2ccccc2)n3-c2cccc(Cl)c2)c1 | 103 | > 150 | 103 |  |
| O=c1[nH]nc2c3c(-c4ccccc4)c(-c4ccccc4)n(-c4cccc(Cl)c4)c3ncn12 | 183 | > 150 | 183 |  |
| S=c1[nH]cnc2c1c(-c1ccccc1)c(-c1ccccc1)n2-c1cccc(Cl)c1 | 145 | > 150 | 145 |  |
| c1ccc(-c2c(-c3ccccc3)n(C3CCCCC3)c3ncn4cnnc4c23)cc1 | 178 | > 150 | 178 |  |
| Cc1nnc2c3c(-c4ccccc4)c(-c4ccccc4)n(-c4ccc(Cl)cc4)c3ncn12 | 138 | > 150 | 138 |  |
| S=c1[nH]nc2c3c(-c4ccccc4)c(-c4ccccc4)n(-c4cccc(Cl)c4)c3ncn12 | 184 | > 150 | 184 |  |
| COc1ccc(/C=N/Nc2ncnc3c2c(-c2ccccc2)c(-c2ccccc2)n3C2CCCCC2)cc1 | 140 | > 150 | 140 |  |
| Clc1ccc(-n2c(-c3ccccc3)c(-c3ccccc3)c3c(N/N=C/c4ccccc4)ncnc32)cc1 | 140 | > 150 | 140 |  |
| Cc1ccccc1Nc1ncnc2c1c(-c1ccccc1)c(-c1ccccc1)n2-c1ccc(Cl)cc1 | 144 | 82.1 | 144 | 90 |
| S=c1[nH]nc2c3c(-c4ccccc4)c(-c4ccccc4)n(-c4ccc(Cl)cc4)c3ncn12 | 138 | > 150 | 138 |  |
| O=c1[nH]cnc2c1c(-c1ccccc1)c(-c1ccccc1)n2C1CCCCC1 | 190 | > 150 | 190 |  |
| O=c1[nH]cnc2c1c(-c1ccccc1)c(-c1ccccc1)n2-c1ccc(Cl)cc1 | 151 | > 150 | 151 |  |
| NNc1ncnc2c1c(-c1ccccc1)c(-c1ccccc1)n2-c1cccc(Cl)c1 | 146 | > 150 | 146 | 0 |
| Clc1ccc(/C=N/Nc2ncnc3c2c(-c2ccccc2)c(-c2ccccc2)n3-c2ccc(Cl)cc2)cc1 | 131 | 93.6 | 131 | 70 |
| Clc1ncnc2c1c(-c1ccccc1)c(-c1ccccc1)n2C1CCCCC1 | 155 | > 150 | 155 |  |
| Cc1ccc(Nc2ncnc3c2c(-c2ccccc2)c(-c2ccccc2)n3-c2cccc(Cl)c2)cc1 | 123 | > 150 | 123 |  |
| Cc1ccc(Nc2ncnc3c2c(-c2ccccc2)c(-c2ccccc2)n3C2CCCCC2)cc1 | 153 | > 150 | 153 |  |

Reference: ChEMBL document CHEMBL3797151, “Design, synthesis, assessment, and molecular docking of novel pyrrolopyrimidine (7-deazapurine) derivatives as non-nucleoside hepatitis C virus NS5B polymerase inhibitors” (Bioorg Med Chem, 2016)
